Source: patent US6939860B2, “Composition and method for treatment of neoplastic diseases associated with elevated matrix metalloproteinase activities using catechin compounds” (priority 2002, dated 2005)

Tests used:
[1] = system: MMP2; experiment: Zymogram of culture media from Matrigel invasion assay, MMP2; format: cell-based, Human
Description: (§1) The media (25-30 μl) from Matrigel Invasion studies was applied to Novex zymogram gels (Invitrogen). The gel plates were developed and stained as recommended by the manufacturer. The matrix-metalloproteinases (MMPs) bands were identified on the basis of their known molecular weights.
(§2) The media from various treatments in the Matrigel Invasion assay (Example 4) were applied to Novex Zymogram Gel (Invitrogen). The plates were developed and stained as recommended by the manufacturer. The matrix metalloproteinases (MMPs) bands were identified on the basis of their known molecular weights (FIG. 6).

[2] = system: Human Breast Cancer Cells MDA-MB 231; experiment: Cell proliferation study (MTT stain), breast cancer cells; conditions: MDA-MB 231, 4 days
Description: To study the effects of catechins and dietary composition on cell proliferation of human cancer cells, various human cancer cell lines were cultured in 24 well plates using the culture conditions specified by ATCC (supplier of cell lines). The cells were generally incubated for 3 to 4 days (before coalescence was reached). The total number of cells in a culture well was determined by staining the cells with vital stain (MTT) followed by the determination of OD of the stain solution. MTT only stain the dead cells and the amount of stain uptake correlates with the number of dead cells in the culture. Percent inhibition was calculated by comparing the OD of the treatment groups with the OD of the control groups. In these studies, 5×10^4 breast cancer cells (MDAMB 231) were seeded in each of the wells of 24-well plate. […] Plates were incubated in ambient air (without supplemental CO2) for a period of 4 days. At the end of the period, the culture media were withdrawn and the cells in each well were stained with MTT. Excess MTT stain was washed off. The MTT stained cancer cells were dissolved in 1 ml DMSO solution. The optical density (OD) of the solution was determined for each well. The OD for the well was directly proportional to the number of dead cells. The OD of the MTT stained cancer cells that were previously cultured in the absence of EGCGT was used as a reference and was considered as 100. Percent inhibition was calculated by using the formula: % Inhibition=(OD of Reference−OD of the Test Treatment)/OD of Reference×100%.

[3] = system: MMP9; experiment: Zymogram of culture media from Matrigel invasion assay, MMP9; format: cell-based, Human; conditions: media of MDA MB 231 Matrigel invasion assay
Description: as §1, §2

[4] = system: Human breast cancer cells (MDA MB 231); experiment: Matrigel invasion assay, breast cancer cells; format: cell-based; conditions: EGCG 50 μg/ml alone, MDA MB 231, 18 hours
Description: The Matrigel Invasion studies were conducted using Matrigel (Becton Dickinson) inserts in compatible 24 well plates. This assay is a reliable assay for evaluating cancer metastasis.
Human fibroblast cells were seeded and grown in the 24-well plates using culture media containing ˜10% serum. When the fibroblasts reached coalescence, the culture media with serum was withdrawn and replaced with fresh media without serum. A combination of catechin compounds plus dietary composition were added to the media without serum and human cancer cells were seeded on the upper surface of the Matrigel inserts.
After 18 hours, the media were withdrawn. Some media were saved for zymogram studies. The cells on the upper surface of the inserts were gently scrubbed away with cotton swab. The cells that had penetrated the Matrigel membrane and had migrated into the lower surface of the Matrigel were stained with Quick Stain and were counted under a microscope.
The general procedure for Matrigel Invasion Assay has been described above. In this assay, human breast cancer cells (5×10^4) were seeded on each insert. Various supplements were added to Leibovitz's media. The plates were incubated in an incubator in ambient air without supplemental CO2.

O=C(O[C@@H]1Cc2c(O)cc(O)cc2O[C@@H]1c1cc(O)c(O)c(O)c1)c1cc(O)c(O)c(O)c1 [EGCG, (−)-epigallocatechin-3-gallate]
production of MMP2 (zymogram) ([1]; EGCG 20 ug/ml, media of MDA MB 231 Matrigel invasion assay): reduced | activity of MMP2 (zymogram) ([1]; EGCG 50 μg/ml, media of MDA MB 231 Matrigel invasion assay): completely inhibited | activity of MMP2 (zymogram) ([1]; EGCG 100 ug/ml, media of MDA MB 231 Matrigel invasion assay): completely inhibited | activity of MMP2 secreted by breast cancer cells (zymogram) ([1]; FIG. 6 legend, concentration not given): decreases | inhibition of cell proliferation ([2]; EGCG 10 ug/ml): did not inhibit | inhibition of cell proliferation ([2]; EGCG 20 μg/ml alone): 3% | inhibition of cell proliferation ([2]; EGCG 50 μg/ml): 34% | inhibition of cell proliferation ([2]; EGCG 100 μg/ml): 66% | inhibition of cell proliferation ([2]; EGCG 200 μg/ml): 70% | production of MMP9 (zymogram) ([3]; EGCG 20 ug/ml): completely inhibited | activity of MMP9 (zymogram) ([3]; EGCG 50 μg/ml): completely inhibited | activity of MMP9 (zymogram) ([3]; EGCG 100 ug/ml): completely inhibited | inhibition of Matrigel invasion [4]: ~100%
